Measured values taken from patent US4719235A, “Methods and compositions for treating viral infection” (Kern; Gerald N., priority 1985, dated 1988).
Like-named read-outs stand apart in the source and are kept apart here.

Experiments:
[1] = Cytotoxicity in solutions containing serum, HeLa; format: cell-based, human; design: key to HeLa (Cytotoxic effect): 0: Cells have normal morphology; 4+: >90% of cells showed CTE.; ±c: less than 10% of cells showed CTE; conditions: human, hela cells, 2% fetal calf serum, 37° C., read-out: HeLa (Cytotoxic effect)
Description: (§1) The cells were grown to confluency in 60×15 mm dishes. The cell monolayers were washed free of growth medium and 5 ml of serum-less growth medium containing docusate sodium at various concentrations was added. The curtures were incubated 24 hours at 37° C. and the cells then examined microscopically for cytotoxic effects (CTE). Controls were done in the same manner except that they were not exposed to docusate sodium.
(§2) The same procedure that was used for Example 17 was used for this Example except that the medium used for growing the cells contained 2% by volume fetal calf serum.

[2] = tested on: HeLa; assay: Cytotoxicity in solutions containing serum, HeLa; format: cell-based, human; design: key to HeLa (Cytotoxic effect): 0: Cells have normal morphology; 4+: >90% of cells showed CTE.; ±c: less than 10% of cells showed CTE; conditions: 0.02 mg/ml, 2% fetal calf serum, 24 hours, 37° C.
Description: as §1, §2

[3] = tested on: primary fibroblasts from human foreskin; assay: Cytotoxicity in solutions free of serum, foreskin fibroblasts; format: cell-based; design: key to Foreskin (toxicity): 0: Cells had normal morphology; 4+: >90% of cells showed CTE; conditions: 24 hours, 37° C.
Description: (§3) The cell lines used to evaluate cytotoxicity of docusate sodium were MA-104 derived from monkey kidneys, HeLa derived from human uterine carcinoma and primary fibroblasts from human foreskin. The cells were grown to confluency in 60×15 mm dishes. The cell monolayers were washed free of growth medium and 5 ml of serum-less growth medium containing docusate sodium at various concentrations was added. The curtures were incubated 24 hours at 37° C. and the cells then examined microscopically for cytotoxic effects (CTE). Controls were done in the same manner except that they were not exposed to docusate sodium.

[4] = as above; format: cell-based, human; design: key to Foreskin (toxicity): 0: Cells had normal morphology; 4+: >90% of cells showed CTE; conditions: human, foreskin fibroblasts, 0.2 mg/ml, 37° C., read-out: Foreskin (toxicity)
Description: as §3

[5] = tested on: Rotavirus strain SA-11; assay: Titration of Rotavirus strain SA-11 after contact with docusate sodium solutions; format: cell-based; conditions: for plaque forming units: 0.2 mg/ml; for pfu/ml: 1 mg/ml
[6] = tested on: HSV-2; assay: Titration of HSV-2 after contact with serum-free docusate sodium solutions (plaque assay on MA-104 cells); format: cell-based, Herpes Simplex Type 2
[7] = tested on: HSV-II; assay: Duration of effect of pretreatment of MA-104 cells prior to exposure to HSV-II; format: cell-based, Herpes Simplex Type 2; conditions: 0.02 mg/ml; for inhibition at 20 µg/mL: Human alphaherpesvirus 2, MA104, read-out: % Reduction In Infectivity
Description: MA-104 cell monolayers were washed twice with Earle's basal salt solution (EBSS) and a 0.02 mg/ml solution of docusate sodium was added to each culture dish. The culture dishes were incubated at 37° C. for one hour and the docusate sodium solutions poured off. The monolayers were then washed twice with EBSS and at appropriate time intervals infected with HSV-II. After the addition of overlay agar, the cultures were incubated at 37° C. for 3 days, stained with crystal voilet, and the plaques counted. Control cultures were treated in a similar manner except for exposure to docusate sodium.

[8] = Cytotoxicity in solutions free of serum, selected cell lines (overall conclusion); format: cell-based; conditions: serum-free medium, read-out: concentration toxic to the cells
Description: as §3

For `CCCCC(CC)COC(=O)CC(C(=O)OCC(CC)CCCC)S(=O)(=O)O` (stereo not shown) [docusate sodium, 1,4-bis(2-ethylhexyl)sodium sulfosuccinate], the cytotoxicity at 24 h ([1]; 0.03 mg/ml) was < 10%, the cytotoxicity at 24 h ([1]; 0.04 mg/ml) was > 90% and the “HeLa (Cytotoxic effect)” value [2] was 0. For the same compound, the “Foreskin (toxicity)” value ([3]; 0.01 mg/ml) was 0, the “Foreskin (toxicity)” value ([3]; 0.05 mg/ml) was 4+ (>90% of cells showed CTE.) and the “Foreskin (toxicity)” value ([3]; 0.1 mg/ml) was 4+ (>90% of cells showed CTE.). For the same compound, the cytotoxicity at 24 h [4] was > 90%, the plaque forming units ([5]; exposure time 0 minutes (control 17,000)) was 16,000 pfu/ml and the plaque forming units ([5]; exposure time 15 minutes) was 19,000 pfu/ml. The plaque forming units ([5]; exposure time 60 minutes (control 13,000)) was 27,000 pfu/ml, the pfu/ml ([5]; exposure time 0 minutes (control 46,500)) was 45,000 pfu/ml and the pfu/ml ([5]; exposure time 60 minutes (control 49,000)) was 51,000 pfu/ml. The “inactivation of Rotavirus SA-11 (conclusion)” value ([5]; 0.2 and 1 mg/ml) was “did not inactivate Rotavirus SA-11”, the killing at 10 µg/mL ([6]; Human alphaherpesvirus 2, MA104, 0.25 h, 0.01 mg/ml, 15 min, 37° C., read-out: % Inactivation of HSV-2) was 19% and the killing at 20 µg/mL ([6]; Human alphaherpesvirus 2, MA104, 0.25 h, 0.02 mg/ml, 15 min, 37° C., read-out: % Inactivation of HSV-2) was 70%. The killing at 30 µg/mL ([6]; Human alphaherpesvirus 2, MA104, 0.25 h, 0.03 mg/ml, 15 min, 37° C., read-out: % Inactivation of HSV-2) was 97%, the killing at 40 µg/mL ([6]; Human alphaherpesvirus 2, MA104, 0.25 h, 0.04 mg/ml, 15 min, 37° C., read-out: % Inactivation of HSV-2) was 100% and the killing at 50 µg/mL ([6]; Human alphaherpesvirus 2, MA104, 0.25 h, 0.05 mg/ml, 15 min, 37° C., read-out: % Inactivation of HSV-2) was 100%. The killing at 100 µg/mL ([6]; Human alphaherpesvirus 2, MA104, 0.25 h, 0.1 mg/ml, 15 min, 37° C., read-out: % Inactivation of HSV-2) was 100%, the killing at 200 µg/mL ([6]; Human alphaherpesvirus 2, MA104, 0.25 h, 0.2 mg/ml, 15 min, 37° C., read-out: % Inactivation of HSV-2) was 100% and the “inactivation of HSV-2 (conclusion)” value ([6]; concentrations as low as 0.02 mg/ml) was “effectively inactivates HSV-2”. The pfu/ml ([7]; infection 0 hours after exposure (control 270,000)) was 53,000 pfu/ml, the pfu/ml ([7]; infection 2 hours after exposure (control 30,000)) was 14,000 pfu/ml and the pfu/ml ([7]; infection 24 hours after exposure (control 69,000)) was 69,000 pfu/ml. The pfu/ml ([7]; infection 72 hours after exposure (control 69,000)) was 58,000 pfu/ml, the “duration of anti-herpes effect of pretreatment (conclusion)” value ([7]; one hour pretreatment) was “transitory” and the inhibition at 20 µg/mL ([7]; infection 0 hours after exposure) was 81%. The inhibition at 20 µg/mL ([7]; infection 2 hours after exposure) was 54%, the inhibition at 20 µg/mL ([7]; infection 24 hours after exposure) was 0% and the inhibition at 20 µg/mL ([7]; infection 72 hours after exposure) was 16%. The MCC at 24 h [8] was 10 to 50 µg/mL.
